Source: patent publication US5994365A, “Substituted diazaanthracene compounds having pharmaceutical utility” (Diazans Limited, priority 1998, dated 1999)

Tests used:
S. aureus ATCC 25923 = assay: Microbroth dilution assay of antimicrobial susceptibility (MIC); format: cell-based, Staphylococcus aureus; conditions: microdilution, CAMHB, 37° C., 18 hrs
Procedure: It is described below, using E. coli ATCC® 25922, S. aureus ATCC® 25923, and P. aeruginosa ATCC® 27853. Prepare 0.0128 g DAA in 10 mL dH2 O (or 95% EtOH, methanol or DMSO if H2 O insoluble)=1280 μg/mL (stock solution). Dilute DAA stock solution 1:10 with CAMHB (Cation-Adjusted Mueller Hinton Broth): 0.5 mL DAA stock solution+4.5 mL CAMHB=128 μg/mL (DAA working solution). Pipette 100 μl of sterile CAMHB per well into columns 2-12 of rows A-G using Eppendorf repeater pipette. Pipette 100 μl per well of sterile-filtered DAA working solution into columns 1 and 2 of rows A, C, E, G using Jensen electric pipette. Mix and transfer 100 μl from column 2 to 3 of rows A, C, E, G using Jensen pipette. Repeat to column 12 then discard 100 μl from column 12. Rows B, D and F are positive growth control lanes for each organism and contain only CAMHB and the organism--no DAA. Row H is the media additive control lane, if necessary (e.g. MeOH, EtOH, DMSO etc.). The concentration of the media additive is obtained by doing a 1:10 dilution of the additive with CAMHB (0.5 mL additive+4.5 mL CAMHB). Row G is considered to be "negative growth control" and is loaded with only CAMHB and the DAA. Inoculate 0.5 mL TSB (Trypticase Soy Broth) tubes with 3 single colonies each of E. coli, S. aureus, and P. Aeruginosa from TSA plates using sterile needle. Incubate @ 37° C. for 4-6 hr. Measure out 100 mL CAMHB using the sterile 100 mL volumetric flask. Pour the excess into a sterile reagent reservoir. Pipette 0.5 mL and discard, leaving 99.5 mL in each of the 3-Erlenmeyer flasks. Set aside. Use the excess CAMHB for the 1:10 dilution of inoculum: 0.5 mL inoculum+4.5 mL CAMHB. Perform a 1:200 dilution of inoculum: 0.5 mL of 1:10 diluted inoculum+99.5 mL CAMHB from previous step. Pipette 100 μl (using Eppendorf repeater pipette) E. coli into each well in columns 1-12 of rows A and B and columns 1-4 of row H (if media additive control lane necessary). Pipette 100 μl P. aeruginosa into each well in columns 1-12 of rows C and D and columns 5-8 of row H (if media additive control lane is necessary). Pipette 100 μl S. aureus into each well in columns 1-12 of rows E and F and columns 9-12 of row H (if media additive control lane is necessary). Incubate microtiter plates @ 37° C. for 18 hrs. The lowest concentration of antimicrobial agent that results in significant inhibition of visible growth represents the MIC (Minimal Inhibitory Concentration).

C. neoformans ATCC 90112 = assay: In vitro antifungal susceptibility assay adapted from NCCLS (MIC); format: cell-based, Cryptococcus neoformans; conditions: RPMI-1640
Procedure: Compounds of the invention also display antifungal activities. […] Using C. albicans ATCC® 90028, C. neoformans ATCC® 90112 and T. glabrata ATCC® 90030, the protocol is performed as follows:
Prepare 0.0128 g DAA in 10 mL dH2 O (or other if H2 O insoluble)=1280 μg/mL (stock solution). Dilute DAA stock solution 1:10 with RPMI-1640: 0.5 mL DAA stock solution+4.5 mL RPMI-1640=128 μg/mL (DAA working solution).
Inoculate rows A-H, columns 2-12 with 100 μl of RPMI-1640 using Eppendorf repeater pipette. Inoculate rows A-C columns 1 and 2 with 100 μl of 1st antibiotic (i.e. DAA-1) using electronic pipette. Inoculate rows E-G columns 1 and 2 with 100 μl of 2nd antibiotic (i.e. DAA-2) using electronic pipette. […] Plate is now ready for fungal inocula, which involves pipetting 100 μl of the inocula into all wells in rows A-C columns 1-12 and rows E-G columns 1-12. […]
Five colonies greater than 1 mm in diameter are suspended in a spectrophotometer cuvette containing 5 mL of sterile, 0.85% saline (colonies are obtained from 24 hrs. old Candida and Torulopsis cultures, while Cryptococcus colonies are chosen from 48 hrs. old cultures). Spectrophotometer is set to read % transmission at a wavelength of 530 nm, and is standardized using two cuvettes. […] Fungal inoculum is now prepared and ready to be introduced to microplates. […]

“10,10'-bis(3,6-dimethyl-5,10-dihydro-1,8-diazaanthracen-5-one) and 5,5'-bis(3,6-dimethyl-5,10-dihydro-1,8-diazaanthracen-10-one) [Example 15]” was tested, and the MIC (S. aureus ATCC 25923) was 0.0625 µg/mL and the MIC (C. neoformans ATCC 90112) was 16 µg/mL.
